Measured values from article PMC6821791, “Phase I Trial of Pyragrel, a Novel Thromboxane Synthetase Inhibitor, to Evaluate the Safety, Tolerability, and Pharmacokinetics in Healthy Volunteers” (Frontiers in Pharmacology, 2019).

What was measured:
[1] = Part I single-ascending-dose plasma pharmacokinetics (HPLC-MS/MS, noncompartmental); format: in vivo, human; conditions: for Pharmacokinetic process over the dose range: 30–300 mg dose range
Method: (§1) Pyragrel administration regimens are as follows: In the single-escalating-dose study (Part I), a total of 52 subjects are enrolled to receive one of three treatments (pyragrel, ozagrel, or placebo, diluted in 500 Ml normal saline) as a 3-h i.v. infusion. Six dose levels of pyragrel (30, 60,120, 180, 240, 300 mg) were intravenously infused to healthy subjects. Of the 12 subjects each at the first three dose groups (30, 60, and 120 mg), 8 received pyragrel, 2 received ozagrel (80 mg), and 2 received placebo. Eight subjects were assigned as 4/2/2 for pyragrel, ozagrel, and placebo at the 180 mg level. Only four subjects were enrolled at the 240- and 300-mg group each; all received pyragrel. […] In the saline-volume-changed study (Part II), the safety and pharmacokinetics of pyragrel were assessed by decreasing the volume of dilution saline. Four subjects received a single 3 h infusion of pyragrel 240 mg diluted in 250 ml saline instead of the 500 ml used in Part I. Blood samples were collected at multiple time points before and after the initiation of the infusion in Part I and Part II; 15 blood samples were predetermined as follows: before drug administration (time 0), 0.5, 1, 2, 3 (4 samples collected during infusion), 3.25, 3.5, 4, 5, 7, 9, 11, 15, 24, and 48 h (10 samples collected post infusion) after the initiation of the infusion. In the multiple-dose study (Part III), 12 subjects received a single 3 h infusion of 180 mg pyragrel (diluted in 250 ml saline) on Day 1 and Day 6 and twice 3 h infusion of 180 mg pyragrel from Day 2 to 5; 14 blood samples were collected on Day 1 and Day 6 before drug administration (0 h), 0.5, 1, 2, 3, 3.25, 3.5, 4, 5, 7, 9, 11, 15, 24 h after the initiation of the infusion; moreover, 5 ml cubital vein blood was collected each time right before pyragrel infusion on Day 2 to Day 5. In the 3×3 crossover study (Part IV), 12 subjects were randomized to receive each of the three dosing groups (60, 120, or 240 mg) of pyragrel (diluted with 250 ml saline, 3 h infusion) per period, with a 7-day washout period between doses. Sixteen blood samples were collected as follows: before drug administration (0 h), 0.17, 0.35, 0.5, 1, 2, 3, 3.25, 3.5, 4, 5, 7, 9, 11, 15, and 24 h after the initiation of the infusion at each period. In the prolonged infusion study (Part V), four subjects received continuous 24 h infusion of pyragrel 360 mg (diluted in 600 ml saline); 19 blood samples were collected as follows: before drug administration (0 h), 0.25, 0.5, 1, 2, 4, 8, 12, 16, 20 (nine samples collected during administration), 24.25, 24.5, 25, 26, 28, 30, 32, 36, and 48 h after the initiation of the infusion (details shown in Figure 1 ). In all five cohorts, 5 ml of cubital vein blood was collected with a sodium heparin anticoagulant tube and centrifuged at 3000 r·min^-1. Each plasma sample was divided into two aliquots and stored at −20°C until further bioanalysis. […] Briefly, 10 µl of the extract drug from […] was injected onto a Zorbax EcLipse XDB C18 column (2.1 mm × 150 mm, 5 μm) (Agilent, USA) using isocratic elution with a mobile phase composed of methanol, water, and formic acid (65:35:0.1, v/v/v). Determination of the analytes was achieved by tandem-mass spectrometry with positive electrospray ionization.
(§2) Pharmacokinetic parameters were calculated using the noncompartmental model (NCA module), WinNonlin 6.1 (Pharsight Corporation, Mountain View, CA, USA). Statistical analysis was performed with SPSS 18. The actual dosing and sampling times were utilized in the analysis. Pharmacokinetic parameters were summarized by dose regimens using descriptive statistics, including n, mean, and the coefficient of variation (CV). For Tmax, only n, min, median, and max were reported.

[2] = Part V prolonged 24 h infusion study, plasma pharmacokinetics; format: in vivo, human; conditions: for AUCINF / AUClast / Cl / Cmax / Tmax / Vz / t1/2: continuous i.v. infusion of pyragrel 360 mg within 24 h, plasma, n=4, mean ± SD
Method: as §1, §2

[3] = mice, daily 36 mg/kg injections for 4 days, cited from earlier work
focal cerebral ischemia = conditions: cited from earlier work
[4] = Part I, metabolite in plasma after single 3 h i.v. infusion of pyragrel 30 mg, n=8, mean ± SD
[5] = Part I, metabolite in plasma after single 3 h i.v. infusion of pyragrel 60 mg, n=8, mean ± SD
[6] = Part I, metabolite in plasma after single 3 h i.v. infusion of pyragrel 120 mg, n=8, mean ± SD
[7] = Part I, metabolite in plasma after single 3 h i.v. infusion of pyragrel 180 mg, n=4, mean ± SD
[8] = Part I, metabolite in plasma after single 3 h i.v. infusion of pyragrel 240 mg, n=4, mean ± SD
[9] = Part I, metabolite in plasma after single 3 h i.v. infusion of pyragrel 300 mg, n=4, mean ± SD
[10] = Part I, single 3-h i.v. infusion of pyragrel 30 mg, plasma, n=8, mean ± SD
[11] = Part I, single 3-h i.v. infusion of pyragrel 60 mg, plasma, n=8, mean ± SD
[12] = Part I, single 3-h i.v. infusion of pyragrel 120 mg, plasma, n=8, mean ± SD
[13] = Part I, single 3-h i.v. infusion of pyragrel 180 mg, plasma, n=4, mean ± SD
[14] = Part I, single 3-h i.v. infusion of pyragrel 240 mg, plasma, n=4, mean ± SD
[15] = Part I, single 3-h i.v. infusion of pyragrel 300 mg, plasma, n=4, mean ± SD

COc1cc(CCC(=O)O)ccc1OCc1nc(C)c(C)nc1C [BBS]
Pharmacokinetic process over the dose range [1]: linear
AUCINF [1, 4]: 1016.64 ± 206.08 µg·h/L
AUClast [1, 4]: 1006.02 ± 209.31 µg·h/L
Cl [1, 4]: 30.60 ± 6.23 L/h
Cmax [1, 4]: 216.34 ± 48.23 µg/L
Tmax [1, 4]: 3.22 ± 0.36 h
Vz [1, 4]: 252.46 ± 113.75 L
t1/2 [1, 4]: 5.90 ± 2.84 h
AUCINF [1, 5]: 1815.58 ± 430.74 µg·h/L
AUClast [1, 5]: 1802.57 ± 421.18 µg·h/L
Cl [1, 5]: 34.63 ± 7.86 L/h
Cmax [1, 5]: 389.37 ± 90.87 µg/L
Tmax [1, 5]: 3.25 ± 0.13 h
Vz [1, 5]: 377.35 ± 68.16 L
t1/2 [1, 5]: 7.94 ± 2.48 h
AUCINF [1, 6]: 3566.52 ± 1518.01 µg·h/L
AUClast [1, 6]: 3553.23 ± 1512.83 µg·h/L
Cl [1, 6]: 37.91 ± 12.00 L/h
Cmax [1, 6]: 753.36 ± 287.7 µg/L
Tmax [1, 6]: 3.31 ± 0.18 h
Vz [1, 6]: 369.08 ± 168.49 L
t1/2 [1, 6]: 6.89 ± 2.29 h
AUCINF [1, 7]: 6563.91 ± 1179.31 µg·h/L
AUClast [1, 7]: 6542.7 ± 1174.8 µg·h/L
Cl [1, 7]: 28.22 ± 5.92 L/h
Cmax [1, 7]: 1490.69 ± 358.43 µg/L
Tmax [1, 7]: 3.31 ± 0.24 h
Vz [1, 7]: 301.81 ± 76.25 L
t1/2 [1, 7]: 7.41 ± 0.97 h
AUCINF [1, 8]: 8910.06 ± 3388.83 µg·h/L
AUClast [1, 8]: 8843.82 ± 3366.35 µg·h/L
Cl [1, 8]: 29.59 ± 9.55 L/h
Cmax [1, 8]: 1878.22 ± 681.05 µg/L
Tmax [1, 8]: 3.25 ± 0.20 h
Vz [1, 8]: 374.58 ± 119.99 L
t1/2 [1, 8]: 8.81 ± 0.46 h
AUCINF [1, 9]: 10549.78 ± 3061.74 µg·h/L
AUClast [1, 9]: 10466.78 ± 3028.35 µg·h/L
Cl [1, 9]: 30.84 ± 11.23 L/h
Cmax [1, 9]: 2139.28 ± 589.06 µg/L
Tmax [1, 9]: 3.19 ± 0.13 h
Vz [1, 9]: 345.29 ± 120.76 L
t1/2 [1, 9]: 7.85 ± 1.92 h
AUCINF [2]: 11,533 ± 3,946 h*µg·L^-1
AUClast [2]: 11,500 ± 3,952 h*µg·L^-1
Cl [2]: 34.11 ± 11.36 L/h
Cmax [2]: 566.1 ± 195.0 ng/mL
Tmax [2]: 18.06 ± 4.13 h
Vz [2]: 234.4 ± 89.53 L
t1/2 [2]: 4.74 ± 0.65 h

COc1cc(C=CC(=O)[O-])ccc1OCc1nc(C)c(C)nc1C.[Na+] [Pyragrel, sodium pyragrel]
Pharmacokinetic process over the dose range [1]: linear
Tmax ([1]; Part I, across all six dose groups (30-300 mg), 3 h infusion): about 3 h
Plasma concentration remaining, fraction of Cmax ([1]; Part I, at 4 h after initiation of the 3 h infusion): 1/20
AUCINF [1, 10]: 1,051.0 ± 185.8 h*µg·L^-1
AUClast [1, 10]: 1,047.5 ± 182.7 h*µg·L^-1
Cl [1, 10]: 29.26 ± 4.69 L/h
Tmax [1, 10]: 2.75 ± 0.46 h
Vz [1, 10]: 96.16 ± 31.87 L
t1/2 [1, 10]: 2.39 ± 1.03 h
AUCINF [1, 11]: 2,009.4 ± 235.97 h*µg·L^-1
AUClast [1, 11]: 2,003.7 ± 235.9 h*µg·L^-1
Cl [1, 11]: 30.23 ± 3.58 L/h
Cmax [1, 11]: 711.8 ± 100.2 µg/L
Tmax [1, 11]: 2.88 ± 0.35 h
Vz [1, 11]: 203.0 ± 81.47 L
t1/2 [1, 11]: 4.62 ± 1.69 h
AUCINF [1, 12]: 4,300.5 ± 807.5 h*µg·L^-1
AUClast [1, 12]: 4,287.2 ± 812.7 h*µg·L^-1
Cl [1, 12]: 28.76 ± 5.26 L/h
Cmax [1, 12]: 1,435.6 ± 319.5 µg·L^-1
Tmax [1, 12]: 2.88 ± 0.35 h
Vz [1, 12]: 278.0 ± 162.5 L
t1/2 [1, 12]: 6.64 ± 3.53 h
AUCINF [1, 13]: 7,390.5 ± 414.7 h*µg·L^-1
AUClast [1, 13]: 7,376.5 ± 413.0 h*µg·L^-1
Cl [1, 13]: 24.41 ± 1.41 L/h
Cmax [1, 13]: 2,622.5 ± 439.9 µg·L^-1
Tmax [1, 13]: 3.00 ± 0.00 h
Vz [1, 13]: 334.4 ± 110.8 L
t1/2 [1, 13]: 9.64 ± 3.58 h
AUCINF [1, 14]: 9,224.3 ± 2,716.3 h*µg·L^-1
AUClast [1, 14]: 9,194.7 ± 2,703.5 h*µg·L^-1
Cl [1, 14]: 27.50 ± 6.80 L/h
Cmax [1, 14]: 3,144.2 ± 931.2 µg·L^-1
Tmax [1, 14]: 2.75 ± 0.50 h
Vz [1, 14]: 573.6 ± 180.3 L
t1/2 [1, 14]: 14.24 ± 1.66 h
AUCINF [1, 15]: 9,315.3 ± 1,219.1 h*µg·L^-1
AUClast [1, 15]: 9,301.4 ± 1,215.2 h*µg·L^-1
Cl [1, 15]: 32.62 ± 4.29 L/h
Cmax [1, 15]: 3,011.7 ± 303.2 µg·L^-1
Tmax [1, 15]: 2.25 ± 0.50 h
Vz [1, 15]: 454.6 ± 191.4 L
t1/2 [1, 15]: 9.88 ± 4.26 h
Plasma concentration remaining, fraction of Cmax ([2]; at 4 h post-infusion): 1/20
AUCINF [2]: 14,995 ± 2,494 h*µg·L^-1
AUClast [2]: 14,984 ± 2,497 h*µg·L^-1
Cl [2]: 24.47 ± 3.75 L/h
Cmax [2]: 861.7 ± 155.1 ng/mL
Tmax [2]: 14.00 ± 7.66 h
Vz [2]: 260.2 ± 144.4 L
t1/2 [2]: 7.05 ± 3.74 h
AUCINF ([2]; listed as pyragrel): 14,994.57 ± 2,493.9 h*µg·L^-1
AUClast ([2]; listed as pyragrel): 14,984.40 ± 2,496.64 h*µg·L^-1
Cmax ([2]; listed as pyragrel): 861.67 ± 155.05 ng/mL
Bleeding time, lower than with ozagrel ([3]; P < 0.01): 35%
Prolongation of coagulation time, pyragrel vs ozagrel [3]: comparable
Effect against focal cerebral ischemic injury and focal cerebral ischemia-reperfusion (focal cerebral ischemia; rat models of focal cerebral ischemia, ref Wang and Wu, 2014): markedly protective effects
Nerve function (focal cerebral ischemia; rats with focal cerebral ischemia-reperfusion injury, continuous infusion of pyragrel for 7 days): significant improvements
